Data published in the supplement of paper PMC10307832.

Each cell line was assayed with COc1cc(Nc2ncc(F)c(Nc3ccc4c(n3)NC(=O)C(C)(C)O4)n2)cc(OC)c1OC [R406] + CC(C)C[C@H](NC(=O)[C@H](Cc1ccccc1)NC(=O)c1cnccn1)B(O)O [Bortezomib] (partner 0.002 µM) (assay: relative viability (nuclei count vs DMSO), 5 days (fraction); higher = more cells survive). Details: first compound 0.08 µM.
Summary of the method: (§1)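 Relative viability was taken as the ratio of nuclei in treated wells to nuclei in vehicle wells. Lung cancer cell lines in 1536-well plates received compounds by pin tool one day after seeding, either one drug alone or a fixed anchor-drug dose plus five library-drug doses (not always all listed) in √10 steps. Nuclei were counted on 4× images after 5 days of treatment, and values are medians of duplicate plates.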

Cell Line	relative viability
NCI-H838	0.709
NCI-H1650	0.244
EBC-1	0.606
NCI-H1703	0.451
Calu-6	0.997
IA-LM	0.878
NCI-H1299	1
CAL-12T	0.927
NCI-H2228	1.05
NCI-H1563	0.764
ABC-1	0.399

Same assay, conditions: first compound 0.253 µM

Cell Line	relative viability
NCI-H838	1.46
NCI-H1650	0.214
EBC-1	0.616
NCI-H1703	0.32
Calu-6	1.06
IA-LM	0.841
NCI-H1299	1.02
CAL-12T	1.18
NCI-H2228	1.15
NCI-H1563	1
ABC-1	0.321

Same assay, conditions: first compound 0.8 µM

Cell Line	relative viability
NCI-H838	1.01
NCI-H1650	0.18
EBC-1	0.672
NCI-H1703	0.588
Calu-6	1.04
IA-LM	0.815
NCI-H1299	1.02
CAL-12T	1.11
NCI-H2228	1.32
NCI-H1563	0.873
ABC-1	0.317

Same assay, conditions: first compound 2.53 µM

Cell Line	relative viability
NCI-H838	0.11
NCI-H1650	0.208
EBC-1	0.44
NCI-H1703	0.183
Calu-6	0.631
IA-LM	0.904
NCI-H1299	1.04
CAL-12T	0.423
NCI-H2228	0.118
NCI-H1563	0.523
ABC-1	0.251

Same assay, conditions: first compound 8 µM

Cell Line	relative viability
NCI-H838	0.153
NCI-H1650	0.197
EBC-1	0.231
NCI-H1703	0.167
Calu-6	0.557
IA-LM	0.705
NCI-H1299	1.04
CAL-12T	0.218
NCI-H2228	0.304
NCI-H1563	0.574
ABC-1	0.265

The cell lines below were run with COc1cc(Nc2ncc(F)c(Nc3ccc4c(n3)NC(=O)C(C)(C)O4)n2)cc(OC)c1OC [R406] + Nc1ncn([C@H]2C[C@H](O)[C@@H](CO)O2)c(=O)n1 [Decitabine] (partner 2 µM) in the same assay as above. Details: first compound 0.08 µM.
Summary of the method: as §1

Cell Line	relative viability
NCI-H522	0.726
NCI-H2342	0.681
NCI-H838	0.496
NCI-H1650	0.475
LK-2	0.227
NCI-H358	0.224
NCI-H2170	0.437
NCI-H1793	0.528
A549	0.22
SK-MES-1	0.351
SW 900	0.486
NCI-H1395	0.685
NCI-H1648	0.53
ABC-1	1.02
NCI-H1944	0.393

Same assay, conditions: first compound 0.253 µM

Cell Line	relative viability
NCI-H522	0.688
NCI-H2342	0.768
NCI-H838	0.528
NCI-H1650	0.407
LK-2	0.469
NCI-H358	0.211
NCI-H2170	0.448
NCI-H1793	0.469
A549	0.261
SK-MES-1	0.384
SW 900	0.469
NCI-H1395	0.782
NCI-H1648	0.527
ABC-1	1.21
NCI-H1944	0.41

Same assay, conditions: first compound 0.8 µM

Cell Line	relative viability
NCI-H522	0.762
NCI-H2342	0.759
NCI-H838	0.485
NCI-H1650	0.359
LK-2	0.379
NCI-H358	0.222
NCI-H2170	0.487
NCI-H1793	0.446
A549	0.257
SK-MES-1	0.455
SW 900	0.446
NCI-H1395	0.72
NCI-H1648	0.483
ABC-1	1.03
NCI-H1944	0.358

Same assay, conditions: first compound 2.53 µM

Cell Line	relative viability
NCI-H522	0.587
NCI-H2342	0.668
NCI-H838	0.363
NCI-H1650	0.413
LK-2	0.23
NCI-H358	0.119
NCI-H2170	0.41
NCI-H1793	0.409
A549	0.258
SK-MES-1	0.229
SW 900	0.555
NCI-H1395	0.572
NCI-H1648	0.515
ABC-1	0.793
NCI-H1944	0.383

Same assay, conditions: first compound 8 µM

Cell Line	relative viability
NCI-H522	0.616
NCI-H2342	0.691
NCI-H838	0.214
NCI-H1650	0.411
LK-2	0.21
NCI-H358	0.125
NCI-H2170	0.505
NCI-H1793	0.177
A549	0.311
SK-MES-1	0.181
SW 900	0.173
NCI-H1395	0.628
NCI-H1648	0.36
ABC-1	0.736
NCI-H1944	0.399

What follows are cell lines tested with COc1cc(Nc2ncc(F)c(Nc3ccc4c(n3)NC(=O)C(C)(C)O4)n2)cc(OC)c1OC [R406] + CC(=O)Nc1cccc(-n2c(=O)n(C3CC3)c(=O)c3c(Nc4ccc(I)cc4F)n(C)c(=O)c(C)c32)c1 [Trametinib] (partner 0.02 µM) in the same assay as above. Details: first compound 0.08 µM.
Summary of the method: as §1

Cell Line	relative viability
NCI-H522	0.779
NCI-H2342	0.724
NCI-H838	0.526
NCI-H1650	0.604
LK-2	0.675
NCI-H358	0.131
NCI-H2170	0.923
NCI-H1793	0.448
SK-MES-1	0.561
SW 900	0.958
NCI-H1395	0.979
CAL-12T	0.343
NCI-H2228	0.501
NCI-H1648	0.564
NCI-H1944	0.401

Same assay, conditions: first compound 0.253 µM

Cell Line	relative viability
NCI-H522	0.917
NCI-H2342	0.841
NCI-H838	0.598
NCI-H1650	0.585
LK-2	1
NCI-H358	0.144
NCI-H2170	0.99
NCI-H1793	0.537
SK-MES-1	0.531
SW 900	0.805
NCI-H1395	1.02
CAL-12T	0.351
NCI-H2228	0.503
NCI-H1648	0.432
NCI-H1944	0.453

Same assay, conditions: first compound 0.8 µM

Cell Line	relative viability
NCI-H522	0.787
NCI-H2342	0.8
NCI-H838	0.684
NCI-H1650	0.633
LK-2	0.718
NCI-H358	0.14
NCI-H2170	1.02
NCI-H1793	0.411
SK-MES-1	0.553
SW 900	0.906
NCI-H1395	0.998
CAL-12T	0.378
NCI-H2228	0.731
NCI-H1648	0.557
NCI-H1944	0.364

Same assay, conditions: first compound 2.53 µM

Cell Line	relative viability
NCI-H522	0.746
NCI-H2342	0.753
NCI-H838	0.256
NCI-H1650	0.054
LK-2	0.706
NCI-H358	0.0877
NCI-H2170	0.647
NCI-H1793	0.422
SK-MES-1	0.304
SW 900	0.764
NCI-H1395	0.687
CAL-12T	0.312
NCI-H2228	0.0769
NCI-H1648	0.463
NCI-H1944	0.385

Same assay, conditions: first compound 8 µM

Cell Line	relative viability
NCI-H522	0.599
NCI-H2342	0.844
NCI-H838	0.115
NCI-H1650	0.124
LK-2	0.447
NCI-H358	0.103
NCI-H2170	0.842
NCI-H1793	0.16
SK-MES-1	0.218
SW 900	0.118
NCI-H1395	0.568
CAL-12T	0.175
NCI-H2228	0.432
NCI-H1648	0.4
NCI-H1944	0.319

Each cell line was assayed with O=C(/C=C/c1cccnc1)NCCCCC1CCN(C(=O)c2ccccc2)CC1 [Daporinad] + C[C@@H](Oc1cc(-c2cnn(C3CCNCC3)c2)cnc1N)c1c(Cl)ccc(F)c1Cl [Crizotinib] (partner 1 µM) in the same assay as above. Details: first compound 0.0005 µM.
Summary of the method: as §1

Cell Line	relative viability
NCI-H838	0.886
NCI-H1650	1.12
EBC-1	0.185
NCI-H1703	0.872
Calu-6	0.902
LK-2	0.327
NCI-H358	0.693
NCI-H2170	1.19
IA-LM	0.734
A549	0.903
SK-MES-1	0.959
NCI-H1299	0.969
CAL-12T	0.659
NCI-H2228	0.505
NCI-H1563	0.85
ABC-1	0.862
NCI-H1944	1.16

Same assay, conditions: first compound 0.001581 µM

Cell Line	relative viability
NCI-H838	0.92
NCI-H1650	1.09
EBC-1	0.166
NCI-H1703	0.669
Calu-6	0.846
LK-2	0.32
NCI-H358	0.709
NCI-H2170	0.723
IA-LM	0.917
A549	0.777
SK-MES-1	1.01
NCI-H1299	0.963
CAL-12T	0.535
NCI-H2228	0.548
NCI-H1563	0.857
ABC-1	1.23
NCI-H1944	1.13

Same assay, conditions: first compound 0.005 µM

Cell Line	relative viability
NCI-H838	0.959
NCI-H1650	1
EBC-1	0.162
NCI-H1703	0.655
Calu-6	0.797
LK-2	0.296
NCI-H358	0.684
NCI-H2170	1.2
IA-LM	1.05
A549	0.844
SK-MES-1	1.12
NCI-H1299	0.974
CAL-12T	0.367
NCI-H2228	0.625
NCI-H1563	0.772
ABC-1	1.02
NCI-H1944	1.24

Same assay, conditions: first compound 0.01581 µM

Cell Line	relative viability
NCI-H838	0.675
NCI-H1650	0.764
EBC-1	0.181
NCI-H1703	0.435
Calu-6	0.514
LK-2	0.283
NCI-H358	0.562
NCI-H2170	1.27
IA-LM	0.82
A549	0.546
SK-MES-1	0.9
NCI-H1299	1.01
CAL-12T	0.185
NCI-H2228	0.636
NCI-H1563	0.623
ABC-1	0.68
NCI-H1944	1.18
